From BindingDB's records for doi:10.1021/acs.biochem.6b01308 (Johns Hopkins University, 2017)

Columns and labels:
[1] = biological target: T1, Iodotyrosine deiodinase [1-228] (Haliscomenobacter hydrossis, UniProt F4KU78); test: IYD Binding Assay
T1 construct: 1-228
T1 sequence (F4KU78 whole entry): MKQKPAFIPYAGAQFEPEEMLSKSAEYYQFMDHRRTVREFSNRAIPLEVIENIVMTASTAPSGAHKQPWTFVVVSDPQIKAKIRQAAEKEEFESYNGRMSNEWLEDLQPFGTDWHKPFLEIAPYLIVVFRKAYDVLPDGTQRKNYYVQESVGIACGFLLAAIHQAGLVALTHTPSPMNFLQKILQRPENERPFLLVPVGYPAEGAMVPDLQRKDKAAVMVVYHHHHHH
Protocol: (§1) Dissociation constants (Kd) for the ligands of IYD were determined by their ability to quench the fluorescence of the oxidized FMN (FMNox) (λex 450 nm, λem 523 nm) in the active site of IYD as previously described [Hu et al., J. Biol. Chem., 290:590-600; McTamney et al., J. Am. Chem. Soc., 131:14212-14213].

[2] = biological target: T2, Iodotyrosine deiodinase 1 [1-1,32-289] (Homo sapiens, UniProt Q6PHW0); test: IYD Binding Assay
T2 construct: 1-1,32-289
T2 sequence (Q6PHW0 whole entry): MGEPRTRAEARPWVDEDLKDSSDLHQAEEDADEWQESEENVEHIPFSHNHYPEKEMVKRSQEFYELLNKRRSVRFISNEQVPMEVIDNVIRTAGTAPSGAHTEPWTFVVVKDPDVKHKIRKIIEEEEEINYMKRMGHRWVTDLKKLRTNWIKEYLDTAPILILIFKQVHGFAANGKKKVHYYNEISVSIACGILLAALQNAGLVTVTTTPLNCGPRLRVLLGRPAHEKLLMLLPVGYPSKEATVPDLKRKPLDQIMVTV
Protocol: as §1

Compound | Kd [1] | Kd [2]
N[C@@H](Cc1ccc(O)c(I)c1)C(=O)O | 8.2 µM | 0.09 µM
Oc1ccccc1I [2-Iodophenol (2IP)] | 67 µM | 1410 µM
Nc1ccc(O)c(I)c1 [4-Amino-2-iodophenol (4A2IP)] | 96 µM | –
N#Cc1ccc(O)c(I)c1 [4-Cyano-2-iodophenol (2IPCN)] | 1.44 µM | –
O=C(O)c1ccc(O)c(I)c1 [4-Hydroxy-3-iodobenzoic acid (2IPCOOH)] | 24.1 µM | –
